Results on 28 compounds are retold here after patent US7141564B2, “Nitrogen-containing bicyclic heterocycles for use as antibacterials” (priority 2001, dated 2006).

Each structure is given as a SMILES string. Counter-ions that a name gives are not always drawn.

The nature of one assay: MIC of test compounds against various organisms.
Settings: not given
Format: cell-based.
Broadly, the MIC is the least concentration at which growth counts as inhibited. For the compound `COc1ccc2nccc(NC(=O)C3=CCC(N(CC(=O)O)Cc4ccc5c(c4)NC(=O)CS5)CC3)c2n1` (racemic) [Example 156, (R/S)-4-[Carboxymethyl-(3-oxo-3,4-dihydro-2H-benzo[1,4]thiazin-6-ylmethyl)-amino]-cyclohex-1-enecarboxylic Acid (6-methoxy-[1,5]naphthyridin-4-yl)-amide Bis(trifluoroacetate) Salt], the MIC is at most 16 µg/mL.

Staying with this assay, now noted: versus all these organisms (panel of 10 strains); read-out: MIC.
Regarding `COc1ccc2nccc(NC(=O)C3=CCC(NCc4ccc5c(c4)NC(=O)CS5)CC3)c2n1` (racemic) [Example 150, (R/S)-4-[(3-Oxo-3,4-dihydro-2H-benzo-[1,4]thiazin-6ylmethyl)-amino]-cyclohex-1-ene carboxylic acid (6-methoxy-[1,5]naphthyridin-4-yl)-amide oxalate], the MIC was at most 4 µg/mL.

In the case of `COc1ccc2nccc(NC(=O)C3=CCC(NCc4cnc5c(c4)NC(=O)CS5)CC3)c2n1` (racemic) [Example 153, (R/S)-4-[(2-Oxo-2,3-dihydro-1H-pyrido[2,3-b][1,4]thiazin-7-ylmethyl)-amino]-cyclohex-1-ene carboxylic acid (6-methoxy-[1,5]naphthyridin-4-yl)-amide oxalate], the MIC is at most 4 µg/mL. On the same count and under the same terms, with `COc1ccc2nccc(NC(=O)C3=CCC(NCc4cc5c(cc4F)OCC(=O)N5)CC3)c2n1` (racemic) [Example 154, (R/S)-4-[(7-Fluoro-3-oxo-3,4-dihydro-2H-benzo[1,4]oxazin-6-ylmethyl)-amino]-cyclohex-1-ene carboxylic acid (6-methoxy-[1,5]naphthyridin-4-yl)-amide oxalate] the figure was at most 4 µg/mL; with `COc1ccc2nccc(NC(=O)C3=CCC(NCc4cnc5c(c4)NC(=O)CO5)CC3)c2n1` (racemic) [Example 155, (R/S)-4-[(2-Oxo-2,3-dihydro-1H-pyrido[2,3-b][1,4]oxazin-7-ylmethyl)-amino]-cyclohex-1-enecarboxylic Acid (6-methoxy-[1,5]naphthyridin-4-yl)-amide oxalate], at most 16 µg/mL; with `COc1ccc2nccc(NC(=O)[C@H]3CC[C@H](NCc4ccc5nsnc5c4)CC3)c2n1` [Example 2, Trans-4-[(Benzo[1,2,5]thiadiazol-5-ylmethyl)-amino]-cyclohexanecarboxylic acid (6-methoxy-[1,5]naphthyridin-4-yl)-amide fumarate salt], at most 4 µg/mL. For the compound `COc1ccc2nccc(NC(=O)[C@H]3CC[C@H](NCc4cc5cccnc5[nH]4)CC3)c2n1` [Example 3, Trans-4-[(1H-Pyrrolo[2,3-b]pyridin-2-ylmethyl)-amino]-cyclohexanecarboxylic acid (6-methoxy-[1,5]naphthyridin4-yl)-amide fumarate salt], the MIC was at most 4 µg/mL. On the same count and under the same terms, the same measure for `COc1ccc2nccc(NC(=O)[C@H]3CC[C@H](NCc4ccc5c(c4)NC(=O)CS5)CC3)c2n1` [Example 4, Trans-4-[(3-Oxo-3,4-dihydro-2H-benzo[1,4]thiazin-6-ylmethyl)-amino]-cyclohexane carboxylic acid (6-methoxy-[1,5]naphthyridin-4-yl)-amide fumarate salt]: at most 4 µg/mL; for `COc1ccc2nccc(NC(=O)[C@H]3CC[C@H](NCc4ccc5c(c4)OCCO5)CC3)c2n1` [Example 5, Trans-4-[(2,3-Dihydro-benzo[1,4]dioxin-6-ylmethyl)-amino]-cyclohexanecarboxylic acid (6-methoxy-[1,5]naphthyridin-4-yl)-amide fumarate salt]: at most 4 µg/mL; for `COc1ccc2nccc(NC(=O)[C@H]3CC[C@H](NCc4ccc5snnc5c4)CC3)c2n1` [Example 6, Trans-4-[(Benzo[1,2,3]thiadiazol-5-ylmethyl)-amino]-cyclohexanecarboxylic acid (6-methoxy-[1,5]naphthyridin-4-yl)-amide fumarate salt]: at most 4 µg/mL. `COc1ccc2nccc(NC(=O)[C@H]3CC[C@H](NCc4ccc5c(c4)oc(=O)n5C)CC3)c2n1` [Example 7, Trans-4-[(3-Methyl-2-oxo-2,3-dihydro-benzooxazol-6-ylmethyl)-amino]-cyclohexanecarboxylic acid (6-methoxy-[1,5]naphthyridin-4-yl)-amide oxalate salt]: the MIC is at most 64 µg/mL. Take `COc1ccc2nccc(NC(=O)[C@H]3CC[C@H](NCc4ccc5c(c4)NC(=O)CO5)CC3)c2n1` [Example 8, Trans-4-[(3-Oxo-3,4-dihydro-2H-benzo[1,4]oxazin-6-ylmethyl)-amino]-cyclohexanecarboxylic acid (6-methoxy-[1,5]naphthyridin-4-yl)-amide fumarate salt]: the MIC is at most 4 µg/mL. Same read-out and setting: the same measure for `COc1ccc2nccc(NC(=O)[C@H]3CC[C@H](NCc4cc5c(cc4F)OCC(=O)N5)CC3)c2n1` [Example 9]: at most 4 µg/mL. As to `COc1cc(F)c2nccc(NC(=O)[C@H]3CC[C@H](NCc4ccc5c(c4)OCCO5)CC3)c2c1` [Example 10, Trans-4-[(2,3-Dihydro-benzo[1,4]dioxin-6-ylmethyl)-amino]-cyclohexanecarboxylic acid (8-fluoro-6-methoxy-quinolin-4-yl)-amide Fumarate Salt], the MIC is at most 16 µg/mL. Same read-out and setting: the same measure for `COc1ccc2nccc(NC(=O)[C@H]3CC[C@H](NCc4ccc5c(c4)OCCO5)CC3)c2c1` [Example 11, Trans-4-[(2,3-Dihydro-benzo[1,4]dioxin-6-ylmethyl)-amino]-cyclohexanecarboxylic acid (6-methoxy-quinolin-4-yl)-amide fumarate salt]: at most 16 µg/mL. With `COc1ccc2nccc(NC(=O)[C@H]3CC[C@H](NCc4ccc5nsnc5c4)CC3)c2c1` [Example 12, Trans-4-[(Benzo[1,2,5]thiadiazol-5-ylmethyl)-amino]-cyclohexanecarboxylic acid (6-methoxy-quinolin-4-yl)-amide fumarate salt], the MIC is at most 4 µg/mL. The same measure, in the same setting: with `COc1ccc2nccc(NC(=O)[C@H]3CC[C@H](NCc4cnc5c(c4)NC(=O)CS5)CC3)c2n1` [Example 13, Trans-4-[(2-Oxo-2,3-dihydro-1H-pyrido[2,3-b][1,4]thiazin-7-ylmethyl)-amino]-cyclohexanecarboxylic Acid (6-methoxy-[1,5]naphthyridin-4-yl)-amide oxalate salt] the figure was at most 4 µg/mL. The same measure, in the same setting: the same measure for `COc1ccc2nccc(NC(=O)[C@H]3CC[C@H](NCc4cnc5c(c4)NC(=O)CS5)CC3)c2c1` [Example 14, Trans-4-[(2-Oxo-2,3-dihydro-1H-pyrido[2,3-b][1,4]thiazin-7-ylmethyl)-amino]-cyclohexanecarboxylic acid (6-methoxy-quinolin-4-yl)-amide oxalate salt]: at most 16 µg/mL; for `COc1ccc2nccc(NC(=O)[C@H]3CC[C@H](NCc4ccc5c(c4)NCCO5)CC3)c2n1` [Example 15, Trans-4-[(3,4-Dihydro-2H-benzo[1,4]oxazin-6-ylmethyl)-amino]-cyclohexanecarboxylic acid (6-methoxy-[1,5]naphthyridin-4-yl)-amide oxalate salt]: at most 16 µg/mL. Same read-out and setting: the same measure for `COc1ccc2nccc(NC(=O)[C@H]3CC[C@H](NCc4cnc5scnc5c4)CC3)c2n1` [Example 16, Trans-4-[(Thiazolo[5,4-b]-pyridin-6-ylmethyl)-amino]-cyclohexanecarboxylic acid (6-methoxy-[1,5]naphthyridin-4-yl)-amide oxalate salt]: at most 16 µg/mL; for `COc1ccc2nccc(NC(=O)[C@H]3CC[C@H](NCc4cc5cccc(O)c5c(=O)[nH]4)CC3)c2n1` [Example 17, Trans-4-[(8-Hydroxy-1-oxo-1,2-dihydro-isoquinolin-3-ylmethyl)-amino]-cyclohexanecarboxylic acid (6-methoxy-[1,5]naphthyridin-4-yl)-amide dihydrochloride salt]: at most 16 µg/mL. For the compound `COc1ccc2nccc(NC(=O)[C@H]3CC[C@H](NCc4ccc5c(n4)OCCO5)CC3)c2n1` [Example 18, Trans-4-[(2,3-Dihydro-[1,4]dioxino[2,3-b]pyridin-6-ylmethyl)-amino]-cyclohexanecarboxylic acid (6-methoxy-[1,5]naphthyridin-4-yl)-amide oxalate salt], the MIC is at most 64 µg/mL. `COc1ccc2nccc(NC(=O)[C@H]3CC[C@H](NCc4cc5c(cn4)OCCO5)CC3)c2n1` [Example 19, Trans-4-[(2,3-Dihydro-[1,4]dioxino[2,3-c]pyridin-7-ylmethyl)-amino]-cyclohexanecarboxylic acid (6-methoxy-[1,5]naphthyridin-4-yl)-amide oxalate salt]: the MIC was at most 4 µg/mL.

For `COc1ccc2nccc(NC(=O)[C@H]3CC[C@H](NCc4cnc5c(c4)OCCO5)CC3)c2n1` [Example 20, Trans-4-[(2,3-Dihydro-[1,4]dioxino[2,3-b]pyridin-7-ylmethyl)-amino]-cyclohexanecarboxylic acid (6-methoxy-[1,5]naphthyridin-4-yl)-amide oxalate salt], the MIC is at most 4 µg/mL.

Regarding `COc1ccc2nccc(C(O)C[C@H]3CC[C@H](NCc4ccc5c(c4)NC(=O)CS5)CC3)c2c1` (stereo partly drawn) [Example 21, Trans-6-({4-[2-Hydroxy-2-(6-methoxy-quinolin-4-yl)-ethyl]-cyclohexylamino}-methyl)-4-H-benzo[1,4]thiazin-3-one oxalate salt], the MIC was at most 4 µg/mL. For the compound `COc1ccc2nccc(C(O)C[C@H]3CC[C@H](NCc4ccc5c(c4)OCCO5)CC3)c2c1` (stereo partly drawn) [Example 22, Trans-2-{4-[(2,3-Dihydro-benzo[1,4]dioxin-6-ylmethyl)-amino]-cyclohexyl}-1-(6-methoxy-quinolin-4-yl)-ethanol oxalate salt], the MIC was at most 16 µg/mL. Still for that read-out and setting: the same measure for `COc1ccc2nccc(NC(=O)[C@H]3CC[C@H](NCc4cc5c(cc4[N+](=O)[O-])OCO5)CC3)c2n1.O=C(O)C(=O)O` [Example 23, Trans-4-[(6-Nitro-benzo[1,3]dioxol-5-ylmethyl)-amino]-cyclohexanecarboxylic acid (6-methoxy-[1,5]naphthyridin-4-yl)-amide oxalate salt]: at most 4 µg/mL; for `COc1ccc2nccc(NC(=O)[C@H]3CC[C@H](NCc4cc5c(cc4N)OCO5)CC3)c2n1` [Example 24, Trans-4-[(6-Amino-benzo[1,3]dioxol-5-ylmethyl)-amino]-cyclohexanecarboxylic acid (6-methoxy-[1,5]naphthyridin-4-yl)-amide dioxalate salt]: at most 16 µg/mL.
